Assay results as given in ChEMBL document CHEMBL4308911, “Elucidating the mode of action for thiophene-based organic D-π-A sensitizers for use in photodynamic therapy” (Bioorg Med Chem, 2019).
Activity calls are given as the source filed them. The calls are words filed in the database; no cut-off is given here.

How the values were obtained:
[1] = Dark toxicity against human HeLa cells assessed as reduction in cell viability after 48 hrs by MTT assay; type: cell-based
HeLa = experiment: Phototoxicity against human HeLa cells assessed as reduction in cell viability preincubated for 1 hr followed by LED light irradiation at 8 +/- 0.5 mW/cm2 for 15 mins and measured after 48 hrs by MTT assay; type: functional, cell-based; settings: light or radiation study
[2] = Drug uptake mitochondria of in human HeLa cells at 10 uM after 1 hr by Mito tracker red-based confocal microscopic analysis; type: ADME
[3] = Drug uptake lysosome of in human HeLa cells at 10 uM after 1 hr by Lyso tracker red-based confocal microscopic analysis; type: ADME, subcellular
[4] = Aggregation property of the compound in potassium phosphate buffer assessed as particle size at 10 uM by DLS method; type: physicochemical
[5] = Drug uptake in human HeLa cells at 20 uM by fluorescence assay; type: ADME, cell-based; settings: TDE = time-dependent effect
[6] = Drug uptake in human HeLa cells at 20 uM at 37 degC after 1 hr by fluorescence assay; type: ADME, cell-based
[7] = Drug uptake in human HeLa cells at 20 uM at 4 degC after 1 hr by fluorescence assay; type: ADME, cell-based
[8] = Drug uptake in human HeLa cells at 20 uM after 1 hr in presence of lipid raft inhibitor methyl-beta-cyclodextrin by fluorescence assay; type: ADME, cell-based
[9] = Induction of singlet oxygen production irradiated with 425 to 479 nm Nd:YAG laser light measured after 100 nanoseconds post irradiation; type: functional
[10] = Drug uptake in human HeLa cells at 20 uM after 1 hr in presence of sucrose by fluorescence assay; type: ADME, cell-based

SMILES: COC(=O)/C(C#N)=C/c1ccc(-c2ccc(-c3ccc(N(c4ccccc4)c4ccccc4)cc3)s2)s1
- IC50 at 48 h [1]: > 100 µM
- IC50 (HeLa): > 100 µM
- Drug uptake [2]: Not Active
- Drug uptake [3]: Not Active
- Activity [4]: Not Active

SMILES: O=Cc1ccc(-c2ccc(-c3ccc(N(c4ccccc4)c4ccccc4)cc3)s2)s1
- IC50 at 48 h [1]: 88.9 µM
- IC50 (HeLa): 9.5 µM
- Drug uptake [2]: Not Active
- Drug uptake [3]: Not Active
- Activity [4]: Not Active

SMILES: N#C/C(=C\c1ccc(-c2ccc(-c3ccc(N(c4ccccc4)c4ccccc4)cc3)s2)s1)C(=O)O
- IC50 at 48 h [1]: 21.9 µM
- IC50 (HeLa): 0.21 µM
- Drug uptake [2]: Active
- Drug uptake [3]: Active
- Activity [4]: 175 nm
- Drug uptake [5]: Tde
- Drug uptake [6]: Active
- Drug uptake [7]: Not Active
- Drug uptake [8]: Not Active
- Activity [9]: Active
- Drug uptake [10]: Not Active

SMILES: N#C/C(=C\c1ccc(-c2ccc(-c3ccc(N(c4ccccc4)c4ccccc4)cc3)s2)s1)C(N)=O
- IC50 at 48 h [1]: 63.1 µM
- IC50 (HeLa): 8.8 µM
- Drug uptake [2]: Active
- Drug uptake [3]: Active
- Activity [4]: 1175 nm
- Drug uptake [6]: Active
- Drug uptake [7]: Not Active
- Drug uptake [8]: Active
- Drug uptake [10]: Not Active

SMILES: CC(C)(C)OC(=O)/C(C#N)=C/c1ccc(-c2ccc(-c3ccc(N(c4ccccc4)c4ccccc4)cc3)s2)s1
- IC50 at 48 h [1]: > 100 µM
- IC50 (HeLa): > 100 µM
- Drug uptake [2]: Not Active
- Drug uptake [3]: Not Active
- Activity [4]: Not Active
